According to US20260327211A1, “MODULATORS OF A POTASSIUM CHANNEL AND OF TRPV1 CHANNEL AND USES THEREOF” (Bsense Bio Therapeutics Ltd., priority 2023, published 2026):
“And” between values parts separate entries of the source, which are not always exact repeats. Equal values may be shown once.

Experiments:
hTRPV1 = molecular target: T1, hTRPV1 (Homo sapiens, UniProt Q8NER1); test: hTRPV1 dual activity electrophysiology, CHO cells co-expressing hKv7.2/3 and hTRPV1; type: cell-based
T1 construct: CDS of NM_080704.4, inserted into the multiple cloning site of pcDNA3.1(+); host or cells: CHO/hKv7.2/3

HepG2 toxicity, ATPlite = type: cell-based, human; details: human, hepg2 cells; 48 hours; read-out: HepG2 Toxicity LD50
Procedure: Cell culture: HepG2 cell-line cells were cultured in EMEM (ATCC 30-2033) medium supplemented with 10% fetal bovine serum (Biological Industries) in a humidified 5% CO2 incubator at 37° C.
ATPlite™ 1step Kit: ATPlite™ 1step kit (PerkinElmer) was used in a 384-wells format to assess potential liver toxicity using HepG2 cells. This is an ATP detection system based on firefly luciferase luminescence for the quantitative evaluation of proliferation and cytotoxicity of cells. ATP is a marker for cell viability because it is present in all metabolically active cells and its concentration declines very rapidly when the cells undergo necrosis or apoptosis.
According to an optimization process done to achieve uniform and consistent screening condition of molecules, the following protocol was established: Cells were seeded in 384-well, black-walled, clear-bottomed, at a density of 4000 cells per well […] and incubated overnight in their normal growth medium. On day two (48 hours before viability measurement), the tested compounds and the positive control were applied to the wells according to the plate design. […] 48 hours later, reconstituted lyophilized substrate solution was added to each well and the sealed 384-well microplate was mixed for 2 minutes at 1100 rpm in an orbital microplate and plates were incubated for 10 minutes in the dark at room temperature. Right after, luminescence was measured in the Tecan plate reader. To estimate the LD50 and LD25 values the data was fitted to sigmoidal regression using Prism-GraphPad. […]

[1] = Rat liver microsome metabolic stability; type: in vitro ADME; details: rat liver microsomes; for half-life at 1 µM: read-out: RLM T1/2
Excerpt: Liver microsomes which are subcellular particles derived from endoplasmic reticulum of hepatic cells were used for evaluating the tested compounds. These particles are rich in drug metabolizing enzymes, including the cytochrome p-450 family. Liver microsomes are a recommended test system for various in vitro drug metabolism and pharmacokinetics (DMPK) studies. CLint values lower than […] are considered suitable for drug development.
Liver Microsome Metabolic Stability Assay (NADPH): The liver microsome stability assay was evaluated through pre-incubation with HLMs. A liver microsome mixture (pooled from multiple donors) at a concentration of 0.5 mg/mL, and the test compound at a concentration of 1 μM, were warmed in the presence of a NADPH regenerating system (about 1.0 mM) at 37° C. Positive controls, including testosterone (a CYP3A4 substrate), propafenone (a CYP2D6 substrate), and diclofenac (a CYP2C9) substrate, were concurrently incubated with the HLMs, in the presence of the NADPH regenerating system (1.0 mM). Samples were extracted during incubation at multiple intervals: 0, 5, 15, 30, 45 and 60 minutes. To terminate the reactions, the samples were promptly mixed with cooled acetonitrile that included an internal standard (IS). An additional compound was incubated with the HLMs in the absence of the NADPH regeneration system, from which a sample was taken at the 60-minute interval.
The clearance of the test compound in the samples was subsequently analyzed by LC-MS/MS based on the peak area ratios of the analyte to the IS.
The following equation was used to calculate the microsome clearance: […]
Liver weight: 40 grams/kg, 30 grams/kg, 32 grams/kg, 20 grams/kg and 88 grams/kg, for rat, monkey, dog, human and mouse, respectively.

[2] = Dual hTRPV1 / Dual Expressing CHO, CAP IC50, Kv7.2/3 co-expressed and activated, capsaicin

T1 sequence (Q8NER1 whole entry): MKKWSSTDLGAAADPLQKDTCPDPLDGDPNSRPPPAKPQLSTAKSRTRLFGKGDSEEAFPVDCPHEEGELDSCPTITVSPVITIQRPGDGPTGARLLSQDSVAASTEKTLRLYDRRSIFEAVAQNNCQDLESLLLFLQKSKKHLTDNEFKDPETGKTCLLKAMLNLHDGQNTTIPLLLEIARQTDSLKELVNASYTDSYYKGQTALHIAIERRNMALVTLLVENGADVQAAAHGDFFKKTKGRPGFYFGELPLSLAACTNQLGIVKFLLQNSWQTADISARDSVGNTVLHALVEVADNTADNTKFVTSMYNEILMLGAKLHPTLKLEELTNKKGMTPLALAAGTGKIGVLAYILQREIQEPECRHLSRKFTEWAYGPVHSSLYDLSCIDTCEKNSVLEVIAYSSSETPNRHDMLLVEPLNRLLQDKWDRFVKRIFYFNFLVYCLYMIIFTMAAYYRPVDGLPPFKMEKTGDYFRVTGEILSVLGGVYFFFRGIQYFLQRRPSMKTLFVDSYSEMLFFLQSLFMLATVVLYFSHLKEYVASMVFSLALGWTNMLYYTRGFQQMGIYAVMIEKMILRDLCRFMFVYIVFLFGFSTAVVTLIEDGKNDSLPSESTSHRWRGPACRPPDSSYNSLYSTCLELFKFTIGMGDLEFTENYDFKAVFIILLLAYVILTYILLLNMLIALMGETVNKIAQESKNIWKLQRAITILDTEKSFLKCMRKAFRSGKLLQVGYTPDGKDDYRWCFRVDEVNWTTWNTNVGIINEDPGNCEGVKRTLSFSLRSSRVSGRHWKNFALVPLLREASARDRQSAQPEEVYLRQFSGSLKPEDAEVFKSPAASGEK

IC50 (hTRPV1; [2]) | CLint scaled at 1 µM [1] | half-life at 1 µM [1] | Compound | CC50 at 48 h (HepG2 toxicity, ATPlite) | also measured
0.528 nM | – | – | O=C(Cc1cc(-n2cc(C(F)(F)F)c3cc(Cl)cc(Cl)c32)ncn1)NCCO [Compound 843] | – | –
0.07 nM and 0.068 nM | 527 mL/min/kg | 4.7 min | O=C(Cc1cncc(-n2cc(Cl)c3cc(Cl)cc(Cl)c32)c1)N[C@@H]1COC[C@H]1O [Compound 661] | > 16600 nM | TRPV1 inhibition, dual-expressing CHO (hTRPV1; 0.01 nM): mild inhibition; TRPV1 inhibition, dual-expressing CHO (hTRPV1; 0.1 nM): inhibited; Potency in dual-expressing CHO vs CHO expressing only TRPV1 (hTRPV1; cho cells): > 200,000 fold
– | 177 mL/min/kg | 14.1 min | Cc1cn(-c2ccc(F)c(CC(=O)NCC(C)(C)O)c2)c2c(Cl)cc(Cl)cc12 [Compound 421] | > 1000 nM | –
0.26 nM and 0.27 nM | 63.5 mL/min/kg | 39.3 min | O=C(Cc1cc(-n2cc(Cl)c3cc(Cl)cc(Cl)c32)ccc1F)NCCO [Compound 627] | 3370 nM | –
48 nM | – | – | O=C(Cc1ccnc(-n2cc(Cl)c3cc(Cl)cc(Cl)c32)n1)N[C@@H]1COC[C@H]1O [Compound 820] | – | –
– | – | 2.5 min | CC(C)c1cc(Cl)cc(Cl)c1Nc1ccc(F)c(CC(=O)NCC(C)(C)O)c1 [NH91, reference compound] | – | –

Compound | IC50 (hTRPV1; [2]) | CLint scaled at 1 µM [1] | half-life at 1 µM [1] | CC50 at 48 h (HepG2 toxicity, ATPlite) | also measured
O=C(Cc1nccc(-n2cc(Cl)c3cc(Cl)cc(Cl)c32)n1)NC1COCC1O (stereo not drawn) [Compound 760] | 0.201 nM | – | 11.9 min | – | inhibition at 100 µM (hTRPV1; CHO, read-out: hTRPV1 current inhibition): 46 ± 13.7%; IC50 (hTRPV1; IC50 of hTRPV1 current inhibition in CHOs with both targets co-expressed and activated, EP): ~0.1 nM
